According to US20030162687A1, “Surfactants” (AJINOMOTO CO. INC., priority 2002, published 2003):

Experiments:
[1] = Particle diameter distribution by sieve classification; format: physicochemical
Description: Content of the 280 mesh pass particles can generally be measured according to JIS Z8815 “General procedures for sieve analysis test”. For example, the content can be determined by sieving particles through a sieve having a mesh size of 280 (53 μm) with vibration using a vibrator, and measuring weight of particles passed through the sieve. The measurement can be carried out, for example, after vibration for 5 minutes with an amplitude of 2.0 mm, and a sieve according to the JIS standard (JIS Z 8801-1) can be used as the sieve. A specific example of the sieving method is given in the examples of the specification, and accordingly, those skilled in the art can measure a content of 280 mesh pass particles by referring to the aforementioned JIS general procedures and descriptions of the examples of the specification.
In the following example, sieve classification was carried out by vibrating a sieve for 5 minutes at an amplitude of 2.0 mm using a vibrator produced by Rctsch. Powdery samples were prepared in a conventional manner by using a spray dryer with sodium N-lauroyl-L-glutamate, sodium N-myristoyl-L-glutamate, sodium N-palmoyl-L-glutamate, and sodium N-cocoyl glycinate as salts of N-long-chain acyl amino acids. Drying was performed under the following conditions.
From the samples dried by the spray drier, 280 mesh pass cut samples, 200 mesh pass cut samples, and 140 mesh pass cut samples were prepared by using sieves. […] Samples that were not subjected to sieve classification were used as controls.

[2] = Flowability by powder tester Model PT-N, Carr's flowability index method; format: physicochemical
Description: As for evaluation of flowability, parameters of angle of repose, degree of compaction, spatula angle, and degree of aggregation were measured by using a powder tester Model PT-N produced by HOSOKAWA MICRON CORP. based on the method for evaluating Carr's flowability index.

[3] = 140 mesh pass cut sample (106 μm)
[4] = 200 mesh pass cut sample (75 μm)
[5] = 280 mesh pass cut sample (53 μm)
[6] = control, not subjected to sieve classification

| Particle diameter distribution 53˜75 μm [1, 3] | Particle diameter distribution 75˜106 μm [1, 3] | Particle diameter distribution 106˜μm [1, 3] | Particle diameter distribution ˜53 μm [1, 3] | Particle diameter distribution 53˜75 μm [1, 4] | Particle diameter distribution 75˜106 μm [1, 4] | Particle diameter distribution 106˜μm [1, 4] | Particle diameter distribution ˜53 μm [1, 4] | Particle diameter distribution 53˜75 μm [1, 5] | Particle diameter distribution 75˜106 μm [1, 5] | Particle diameter distribution 106˜μm [1, 5] | Particle diameter distribution ˜53 μm [1, 5] | Particle diameter distribution 53˜75 μm [1, 6] | Particle diameter distribution 75˜106 μm [1, 6] | Particle diameter distribution 106˜μm [1, 6] | Particle diameter distribution ˜53 μm [1, 6] | Flowability: Angle of repose [2, 3] | Flowability: Degree of aggregation [2, 3] | Flowability: Degree of compaction [2, 3] | Flowability: Spatula angle [2, 3] | Compound | further results |
| --- | --- | --- | --- | --- | --- | --- | --- | --- | --- | --- | --- | --- | --- | --- | --- | --- | --- | --- | --- | --- | --- |
| 0% | 0% | 100% | 0% | 0% | 9.6% | 90.4% | 0% | 8.3% | 8.8% | 82.9% | 0% | 7.9% | 8.4% | 79.0% | 4.7% | 29.1 ° | 34.6% | 13.7% | 29.5 ° | CCCCCCCCCCCC(=O)N[C@@H](CCC(=O)[O-])C(=O)[O-].[Na+].[Na+] [Na lauroylglutamate, sodium N-lauroyl-L-glutamate] | Flowability index [2, 3]: 76.0; Flowability index [2, 4]: 77.0; Flowability: Angle of repose [2, 4]: 30.6 °; Flowability: Degree of aggregation [2, 4]: 15.7%; Flowability: Degree of compaction [2, 4]: 12.7%; Flowability: Spatula angle [2, 4]: 31.7 °; Flowability index [2, 5]: 78.0; Flowability: Angle of repose [2, 5]: 28.6 °; Flowability: Degree of aggregation [2, 5]: 12.5%; Flowability: Degree of compaction [2, 5]: 14.0%; Flowability: Spatula angle [2, 5]: 36.7 °; Flowability index [2, 6]: 67.0; Flowability: Angle of repose [2, 6]: 33.0 °; Flowability: Degree of aggregation [2, 6]: 15.1%; Flowability: Degree of compaction [2, 6]: 18.3%; Flowability: Spatula angle [2, 6]: 46.7 ° |
| 0% | 0% | 100% | 0% | 0% | 15.1% | 84.9% | 0% | 6.5% | 14.1% | 79.4% | 0% | 6.0% | 13.0% | 73.3% | 7.7% | 30.8 ° | 13.5% | 11.3% | 34.8 ° | CCCCCCCCCCCCCC(=O)N[C@@H](CCC(=O)[O-])C(=O)[O-].[Na+].[Na+] [Na myristoylglutamate, sodium N-myristoyl-L-glutamate] | Flowability: Angle of repose [2, 4]: 30.1 °; Flowability: Degree of aggregation [2, 4]: 19.9%; Flowability: Degree of compaction [2, 4]: 11.1%; Flowability: Spatula angle [2, 4]: 37.0 °; Flowability: Angle of repose [2, 5]: 31.1 °; Flowability: Degree of aggregation [2, 5]: 15.9%; Flowability: Degree of compaction [2, 5]: 12.8%; Flowability: Spatula angle [2, 5]: 38.8 °; Flowability: Angle of repose [2, 6]: 26.6 °; Flowability: Degree of aggregation [2, 6]: 12.3%; Flowability: Degree of compaction [2, 6]: 16.5%; Flowability: Spatula angle [2, 6]: 49.3 ° |
| 0% | 0% | 100% | 0% | 0% | 9.2% | 90.8% | 0% | 6.5% | 15.3% | 78.2% | 0% | 4.4% | 17.1% | 73.0% | 5.5% | 28.6 ° | 27.9% | 15.6% | 43.4 ° | sodium N-cocoyl glycinate [Na cocoylglycinate] | Flowability: Angle of repose [2, 4]: 31.0 °; Flowability: Degree of aggregation [2, 4]: 28.1%; Flowability: Degree of compaction [2, 4]: 15.1%; Flowability: Spatula angle [2, 4]: 50.0 °; Flowability: Angle of repose [2, 5]: 33.0 °; Flowability: Degree of aggregation [2, 5]: 28.4%; Flowability: Degree of compaction [2, 5]: 14.5%; Flowability: Spatula angle [2, 5]: 56.0 °; Flowability: Angle of repose [2, 6]: 36.7 °; Flowability: Degree of aggregation [2, 6]: 32.8%; Flowability: Degree of compaction [2, 6]: 16.4%; Flowability: Spatula angle [2, 6]: 62.0 ° |
| 0% | 0% | 100% | 0% | 0% | 14.4% | 81.3% | 0% | 4.8% | 17.8% | 77.4% | 0% | 4.5% | 16.9% | 73.3% | 5.3% | 32.0 ° | 26.4% | 10.2% | 49.2 ° | CCCCCCCCCCCCCCCC(=O)N[C@@H](CCC(=O)[O-])C(=O)[O-].[Na+].[Na+] [Na palmoylglutamate, sodium N-palmoyl-L-glutamate] | Flowability: Angle of repose [2, 4]: 37.4 °; Flowability: Degree of aggregation [2, 4]: 20.6%; Flowability: Degree of compaction [2, 4]: 12.4%; Flowability: Spatula angle [2, 4]: 53.4 °; Flowability: Angle of repose [2, 5]: 35.5 °; Flowability: Degree of aggregation [2, 5]: 21.5%; Flowability: Degree of compaction [2, 5]: 12.4%; Flowability: Spatula angle [2, 5]: 52.4 °; Flowability: Angle of repose [2, 6]: 39.3 °; Flowability: Degree of aggregation [2, 6]: 17.6%; Flowability: Degree of compaction [2, 6]: 15.6%; Flowability: Spatula angle [2, 6]: 59.0 ° |
